According to publication PMC3310894 (Bioorganic & medicinal chemistry, 2012):

Tests used:
[1] = mice; 35 mg/kg of 11a, 10 mg/kg of 8
[2] = system: COLO-205 tumor xenografts; test: COLO-205 human metastatic colon mouse xenograft; assay type: in vivo; settings: athymic mice, 11a 35 mg/kg, 8 10 mg/kg, three times weekly, IP
VEGFR-1 = VEGFR-1 (Homo sapiens, UniProt P17948); settings: for VEGFR-1 inhibition, fold less active than the standard 21: relative to standard 21
VEGFR-2 = VEGFR-2 (Homo sapiens, UniProt P35968); settings: for VEGFR-2 inhibition, fold less active than the standard 23: relative to standard 23
Sequence of VEGFR-2 (P35968 20-1356): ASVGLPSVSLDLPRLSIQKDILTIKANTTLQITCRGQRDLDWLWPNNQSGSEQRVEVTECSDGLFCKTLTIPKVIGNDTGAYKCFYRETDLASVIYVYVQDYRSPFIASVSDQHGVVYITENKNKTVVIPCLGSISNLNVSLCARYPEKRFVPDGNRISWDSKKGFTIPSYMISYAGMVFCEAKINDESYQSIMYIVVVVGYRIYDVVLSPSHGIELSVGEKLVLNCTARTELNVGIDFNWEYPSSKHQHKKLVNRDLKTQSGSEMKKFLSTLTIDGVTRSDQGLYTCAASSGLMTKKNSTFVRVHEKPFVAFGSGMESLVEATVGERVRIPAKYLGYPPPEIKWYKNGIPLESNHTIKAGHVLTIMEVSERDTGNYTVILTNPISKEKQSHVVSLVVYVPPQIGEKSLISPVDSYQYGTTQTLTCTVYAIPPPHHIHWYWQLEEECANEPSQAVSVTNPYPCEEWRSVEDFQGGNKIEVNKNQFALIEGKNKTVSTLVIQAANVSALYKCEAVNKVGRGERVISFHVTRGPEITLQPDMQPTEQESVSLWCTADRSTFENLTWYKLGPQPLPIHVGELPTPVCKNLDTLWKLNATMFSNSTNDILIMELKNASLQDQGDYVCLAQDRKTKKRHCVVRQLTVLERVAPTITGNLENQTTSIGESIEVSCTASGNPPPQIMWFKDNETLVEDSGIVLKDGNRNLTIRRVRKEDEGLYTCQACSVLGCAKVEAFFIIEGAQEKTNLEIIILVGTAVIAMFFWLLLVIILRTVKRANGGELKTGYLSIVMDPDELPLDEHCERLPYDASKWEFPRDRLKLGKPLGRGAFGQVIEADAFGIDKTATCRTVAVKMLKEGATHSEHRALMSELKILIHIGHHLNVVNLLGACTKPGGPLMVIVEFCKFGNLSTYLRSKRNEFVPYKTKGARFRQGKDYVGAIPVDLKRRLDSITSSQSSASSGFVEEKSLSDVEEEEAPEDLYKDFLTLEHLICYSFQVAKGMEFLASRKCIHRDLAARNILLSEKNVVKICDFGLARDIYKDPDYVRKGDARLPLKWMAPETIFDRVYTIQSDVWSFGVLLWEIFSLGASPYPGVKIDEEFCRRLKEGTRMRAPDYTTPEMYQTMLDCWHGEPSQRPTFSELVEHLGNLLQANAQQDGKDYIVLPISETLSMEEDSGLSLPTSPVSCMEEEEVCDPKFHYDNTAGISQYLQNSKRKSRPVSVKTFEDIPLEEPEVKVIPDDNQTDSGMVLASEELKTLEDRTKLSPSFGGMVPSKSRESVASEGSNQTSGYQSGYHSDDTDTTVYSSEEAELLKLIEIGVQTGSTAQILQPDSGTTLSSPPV

EGFR = EGFR (Homo sapiens, UniProt P00533); settings: for EGFR inhibition, fold less potent than the standard 20: relative to standard 20 (PD153035)
Sequence of EGFR (P00533 25-1210): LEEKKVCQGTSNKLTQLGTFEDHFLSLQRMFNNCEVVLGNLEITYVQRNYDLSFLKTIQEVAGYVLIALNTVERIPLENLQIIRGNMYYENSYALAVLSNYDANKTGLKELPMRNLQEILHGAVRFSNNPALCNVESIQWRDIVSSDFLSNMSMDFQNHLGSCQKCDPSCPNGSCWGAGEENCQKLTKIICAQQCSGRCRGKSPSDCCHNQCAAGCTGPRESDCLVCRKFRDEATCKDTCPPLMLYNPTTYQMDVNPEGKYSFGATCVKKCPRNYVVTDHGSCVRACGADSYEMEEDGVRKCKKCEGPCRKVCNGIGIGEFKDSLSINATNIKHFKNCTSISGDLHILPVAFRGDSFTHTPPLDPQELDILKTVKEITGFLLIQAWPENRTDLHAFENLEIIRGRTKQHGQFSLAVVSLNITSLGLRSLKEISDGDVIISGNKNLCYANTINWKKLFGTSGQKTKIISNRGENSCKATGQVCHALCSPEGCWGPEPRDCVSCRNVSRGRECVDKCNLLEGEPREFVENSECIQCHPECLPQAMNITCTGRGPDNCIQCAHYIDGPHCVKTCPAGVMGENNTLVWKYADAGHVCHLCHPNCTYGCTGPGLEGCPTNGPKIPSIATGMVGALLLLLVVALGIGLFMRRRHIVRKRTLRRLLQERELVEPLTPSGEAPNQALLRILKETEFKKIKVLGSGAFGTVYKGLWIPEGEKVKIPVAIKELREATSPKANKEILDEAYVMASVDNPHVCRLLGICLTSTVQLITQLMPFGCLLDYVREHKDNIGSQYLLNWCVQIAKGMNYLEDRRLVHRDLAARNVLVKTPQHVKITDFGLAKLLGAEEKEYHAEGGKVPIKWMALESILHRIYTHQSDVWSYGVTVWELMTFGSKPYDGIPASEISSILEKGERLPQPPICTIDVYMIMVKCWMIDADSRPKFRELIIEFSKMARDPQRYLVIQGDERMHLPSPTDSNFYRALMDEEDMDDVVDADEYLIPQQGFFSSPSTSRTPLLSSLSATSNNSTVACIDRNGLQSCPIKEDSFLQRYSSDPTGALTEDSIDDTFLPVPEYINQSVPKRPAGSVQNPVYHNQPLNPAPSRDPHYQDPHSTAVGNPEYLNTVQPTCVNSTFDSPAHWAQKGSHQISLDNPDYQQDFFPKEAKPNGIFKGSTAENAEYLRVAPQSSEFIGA

PDGFR-β = PDGFR-β (Homo sapiens, UniProt P09619); settings: for PDGFRβ inhibition, fold less active than the standard 22: relative to standard 22 (AG1295)
Sequence of PDGFR-β (P09619 33-1106): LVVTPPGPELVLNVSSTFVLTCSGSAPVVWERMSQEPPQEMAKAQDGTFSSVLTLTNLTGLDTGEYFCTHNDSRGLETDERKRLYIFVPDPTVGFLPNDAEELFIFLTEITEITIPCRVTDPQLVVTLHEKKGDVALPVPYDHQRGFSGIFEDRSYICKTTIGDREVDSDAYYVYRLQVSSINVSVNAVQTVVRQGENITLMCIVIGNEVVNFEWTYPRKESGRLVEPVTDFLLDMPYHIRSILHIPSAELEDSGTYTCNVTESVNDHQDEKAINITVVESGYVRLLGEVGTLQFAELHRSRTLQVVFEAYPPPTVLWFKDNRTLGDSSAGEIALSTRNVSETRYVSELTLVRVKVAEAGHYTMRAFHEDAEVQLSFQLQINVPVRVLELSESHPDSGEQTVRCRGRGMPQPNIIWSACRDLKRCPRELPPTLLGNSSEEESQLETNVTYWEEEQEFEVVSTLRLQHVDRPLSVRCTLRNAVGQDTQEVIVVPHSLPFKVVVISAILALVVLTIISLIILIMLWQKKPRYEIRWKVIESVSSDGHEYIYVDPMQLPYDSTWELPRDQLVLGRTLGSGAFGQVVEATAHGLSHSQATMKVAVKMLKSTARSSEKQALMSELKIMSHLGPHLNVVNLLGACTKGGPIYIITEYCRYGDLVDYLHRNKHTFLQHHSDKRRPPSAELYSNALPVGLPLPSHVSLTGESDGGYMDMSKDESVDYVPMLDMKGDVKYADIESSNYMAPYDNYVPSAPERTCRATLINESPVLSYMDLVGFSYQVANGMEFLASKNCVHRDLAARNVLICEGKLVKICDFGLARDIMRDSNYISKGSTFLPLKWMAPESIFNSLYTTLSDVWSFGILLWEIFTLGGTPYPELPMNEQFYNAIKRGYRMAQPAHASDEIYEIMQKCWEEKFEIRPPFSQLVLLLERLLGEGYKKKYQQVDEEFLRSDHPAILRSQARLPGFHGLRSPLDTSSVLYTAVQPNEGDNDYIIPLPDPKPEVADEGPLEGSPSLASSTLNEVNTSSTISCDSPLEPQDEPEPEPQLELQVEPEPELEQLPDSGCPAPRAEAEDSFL

Sequence of VEGFR-1 (P17948 27-1338): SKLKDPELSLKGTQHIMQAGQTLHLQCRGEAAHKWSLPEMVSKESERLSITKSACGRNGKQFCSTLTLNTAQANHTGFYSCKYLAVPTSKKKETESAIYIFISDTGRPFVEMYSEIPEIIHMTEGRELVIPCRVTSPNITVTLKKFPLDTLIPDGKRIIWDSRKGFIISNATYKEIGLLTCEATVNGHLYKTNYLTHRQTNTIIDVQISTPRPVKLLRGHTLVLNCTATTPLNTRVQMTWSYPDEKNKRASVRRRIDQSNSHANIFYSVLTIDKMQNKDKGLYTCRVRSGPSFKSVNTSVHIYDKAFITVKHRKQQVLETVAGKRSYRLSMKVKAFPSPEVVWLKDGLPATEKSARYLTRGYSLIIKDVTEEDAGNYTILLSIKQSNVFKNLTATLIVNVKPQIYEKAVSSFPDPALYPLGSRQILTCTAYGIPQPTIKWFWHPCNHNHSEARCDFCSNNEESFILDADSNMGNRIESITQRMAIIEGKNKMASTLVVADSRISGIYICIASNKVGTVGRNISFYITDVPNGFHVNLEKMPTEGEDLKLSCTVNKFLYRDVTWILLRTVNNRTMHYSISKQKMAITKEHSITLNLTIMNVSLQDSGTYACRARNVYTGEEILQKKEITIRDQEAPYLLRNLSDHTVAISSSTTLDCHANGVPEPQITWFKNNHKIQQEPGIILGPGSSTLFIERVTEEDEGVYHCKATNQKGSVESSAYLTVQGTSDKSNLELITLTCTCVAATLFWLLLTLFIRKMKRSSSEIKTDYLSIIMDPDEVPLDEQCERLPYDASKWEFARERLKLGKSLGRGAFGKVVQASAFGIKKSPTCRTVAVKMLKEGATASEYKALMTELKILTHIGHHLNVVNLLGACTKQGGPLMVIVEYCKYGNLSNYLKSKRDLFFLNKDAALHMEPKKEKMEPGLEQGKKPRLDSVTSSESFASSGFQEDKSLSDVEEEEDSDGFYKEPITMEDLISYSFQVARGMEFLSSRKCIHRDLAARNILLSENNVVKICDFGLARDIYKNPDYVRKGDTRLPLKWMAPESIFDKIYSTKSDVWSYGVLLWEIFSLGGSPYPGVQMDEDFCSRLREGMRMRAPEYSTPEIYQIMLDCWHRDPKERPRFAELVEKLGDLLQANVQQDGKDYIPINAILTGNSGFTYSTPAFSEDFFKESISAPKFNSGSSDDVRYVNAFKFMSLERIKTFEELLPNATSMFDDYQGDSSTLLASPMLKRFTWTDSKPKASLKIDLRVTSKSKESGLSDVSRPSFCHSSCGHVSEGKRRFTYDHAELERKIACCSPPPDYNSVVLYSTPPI

Structure (SMILES): Cc1[nH]c(/C=C2\C(=O)Nc3ccccc32)c(C)c1CCC(=O)O [Compound 8, TSU-68, reference compound]
- toxicity in six week toxicity determination study [1]: no overt toxicity
- primary tumor growth rate compared to the control [2]: significant decreases
- primary tumor vascularity compared to control animals [2]: significant decrease

Structure (SMILES): Nc1nc(Nc2cccc(Br)c2)c2ccn(Cc3ccccc3)c2n1 [Compound 9a, 7-benzyl-N^4-(3-bromophenyl)-7H-pyrrolo[2,3-d]pyrimidine-2,4-diamine]
- VEGFR-1 inhibition, fold less active than the standard 21 (VEGFR-1): 5.6 fold
- VEGFR-2 inhibition, fold less active than the standard 23 (VEGFR-2): 2 fold
- EGFR inhibition, fold less potent than the standard 20 (EGFR): about 800 fold

Structure (SMILES): Nc1nc(Nc2cccc(Br)c2)c2ccn(Cc3ccccc3Cl)c2n1 [Compound 11a, N^4-(3-bromophenyl)-7-(2-chlorobenzyl)-7H-pyrrolo[2,3-d]pyrimidine-2,4-diamine]
- toxicity in six week toxicity determination study [1]: no overt toxicity
- PDGFRβ inhibition, result in words (PDGFR-β): single digit micromolar concentrations
- PDGFRβ inhibition, fold more active than parent regioisomer 11 (PDGFR-β; relative to 6-substituted regioisomer 11): > 33 fold
- numbers of COLO-205 metastases to the liver [2]: significantly reduced numbers
- primary tumor growth rate compared to the control [2]: significant decreases
- primary tumor vascularity compared to control animals [2]: significant decrease
- VEGFR-1 inhibition, fold less active than the standard 21 (VEGFR-1): 7 fold
- VEGFR-2 inhibition, fold less active than the standard 23 (VEGFR-2): 1.6 fold

Structure (SMILES): COc1ccc(OC)c(Cn2ccc3c(Nc4cccc(Br)c4)nc(N)nc32)c1 [Compound 13a, N^4-(3-bromophenyl)-7-(2,5-dimethoxybenzyl)-7H-pyrrolo[2,3-d]pyrimidine-2,4-diamine]
- VEGFR-2 inhibition, result in words (VEGFR-2): inactive even at 200 μM
- EGFR inhibition, result in words (EGFR): 2-digit micromolar inhibition
- EGFR inhibition, fold less potent than the standard 20 (EGFR): 346 fold

Structure (SMILES): Nc1nc(Nc2cccc(Br)c2)c2ccn(Cc3ccc(Cl)cc3Cl)c2n1 [Compound 14a, N^4-(3-bromophenyl)-7-(2,4-dichlorobenzyl)-7H-pyrrolo[2,3-d]pyrimidine-2,4-diamine]
- VEGFR-2 inhibition, result in words (VEGFR-2): inactive
- EGFR inhibition, result in words (EGFR): inactivity

Structure (SMILES): Nc1nc(Nc2cccc(Br)c2)c2ccn(Cc3ccc(Cl)c(Cl)c3)c2n1 [Compound 15a, N^4-(3-bromophenyl)-7-(3,4-dichlorobenzyl)-7H-pyrrolo[2,3-d]pyrimidine-2,4-diamine]
- VEGFR-1 inhibition, fold less active than the standard 21 (VEGFR-1): 7 fold
- VEGFR-2 inhibition, fold less active than the standard 23 (VEGFR-2): 6 fold
- EGFR inhibition, result in words (EGFR): inactivity

Structure (SMILES): Nc1nc(Nc2cccc(Br)c2)c2ccn(Cc3cccc4ccccc34)c2n1 [Compound 16a, N^4-(3-bromophenyl)-7-(1-naphthylmethyl)-7H-pyrrolo[2,3-d]pyrimidine-2,4-diamine]
- PDGFRβ inhibition, fold less active than the standard 22 (PDGFR-β): 20 fold
- VEGFR-1 inhibition, fold less active than the standard 21 (VEGFR-1): 8.4 fold
- VEGFR-2 inhibition, fold less active than parent regioisomer 16 (VEGFR-2; 16a versus 16): 3 fold
- VEGFR-2 inhibition, fold less active than the standard 23 (VEGFR-2): 1.4 fold
- EGFR inhibition, result in words (EGFR): abolished

Structure (SMILES): Nc1nc(Nc2cccc(Br)c2)c2ccn(Cc3ccc4ccccc4c3)c2n1 [Compound 17a, N^4-(3-bromophenyl)-7-(2-naphthylmethyl)-7H-pyrrolo[2,3-d]pyrimidine-2,4-diamine]
- PDGFRβ inhibition, fold less active than the standard 22 (PDGFR-β): 34 fold
- VEGFR-1 inhibition, fold less active than the standard 21 (VEGFR-1): 2.8 fold
- VEGFR-2 inhibition, fold less active than the standard 23 (VEGFR-2): 2 fold
- EGFR inhibition, result in words (EGFR): abolished

Structure (SMILES): Nc1nc(Nc2cccc(Br)c2)c2ccn(Cc3ccc(-c4ccccc4)cc3)c2n1 [Compound 18a, 7-Biphenyl-4-ylmethyl-N^4-(3-bromo-phenyl)-7H-pyrrolo[2,3-d]pyrimidine-2,4-diamine]
- VEGFR-1 inhibition, result in words (VEGFR-1): inactive at a concentration of 200 μM
- EGFR inhibition, result in words (EGFR): abolished

Structure (SMILES): COc1cc(Cn2ccc3c(Nc4cccc(Br)c4)nc(N)nc32)cc(OC)c1OC [Compound 19a, N^4-(3-Bromo-phenyl)-7-(3,4,5-trimethoxy-benzyl)-7H-pyrrolo[2,3-d]pyrimidine-2,4-diamine]
- PDGFRβ inhibition, result in words (PDGFR-β): single digit micromolar concentrations
- VEGFR-1 inhibition, fold less active than the standard 21 (VEGFR-1): about 8.8 fold
- VEGFR-2 inhibition, fold less active than the standard 23 (VEGFR-2): 2 fold
- EGFR inhibition, result in words (EGFR): inactivity
